Measured values as given in US12686687B2, “Compounds and uses thereof” (Foghorn Therapeutics Inc., priority 2019, dated 2026).
Read-outs that look alike come from different tables or passages of the source.

Target: T1, Nanoluciferase-BRD9 fusion protein (3×FLAG-NLuc-BRD9) in SYO-1 cells (Homo sapiens, UniProt Q9H8M2)
T1 construct: expressed in transfected cells; host or cells: SYO-1
T1 sequence (Q9H8M2 1-597): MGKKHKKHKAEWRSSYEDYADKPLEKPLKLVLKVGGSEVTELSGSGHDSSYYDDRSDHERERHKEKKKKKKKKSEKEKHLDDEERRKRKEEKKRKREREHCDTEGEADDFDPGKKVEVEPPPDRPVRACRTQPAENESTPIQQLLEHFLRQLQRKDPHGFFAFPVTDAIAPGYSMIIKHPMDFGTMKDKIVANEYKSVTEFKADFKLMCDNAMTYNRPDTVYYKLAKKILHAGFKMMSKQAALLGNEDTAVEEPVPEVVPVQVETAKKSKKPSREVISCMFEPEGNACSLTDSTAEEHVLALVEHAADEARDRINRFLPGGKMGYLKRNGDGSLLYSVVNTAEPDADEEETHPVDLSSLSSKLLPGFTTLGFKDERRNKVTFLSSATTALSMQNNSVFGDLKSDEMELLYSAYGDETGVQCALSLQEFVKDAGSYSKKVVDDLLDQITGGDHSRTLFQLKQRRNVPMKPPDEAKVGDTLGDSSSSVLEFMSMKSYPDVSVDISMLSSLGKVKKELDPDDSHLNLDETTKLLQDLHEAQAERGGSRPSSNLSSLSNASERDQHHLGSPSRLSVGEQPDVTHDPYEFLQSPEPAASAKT
Assay: SYO1 BRD9 NanoLuc degradation assay
Assay type: cell-based
Details: SYO-1 cells expressing 3×FLAG-NLuc-BRD9, 6 hours incubation, 1 μM top dose, read-out: SYO1 BRD9-NanoLuc degradation IC50
Description: Procedure: A stable SYO-1 cell line expressing 3×FLAG-NLuc-BRD9 was generated. On day 0 cells were seeded in 30 μL media into each well of 384-well cell culture plates. The seeding density was 8000 cells/well. On day 1, cells were treated with 30 nL DMSO or 30 nL of 3-fold serially DMSO-diluted compounds (10 points in duplicates with 1 μM as final top dose). Subsequently plates were incubated for 6 hours in a standard tissue culture incubator and equilibrated at room temperature for 15 minutes. Nanoluciferase activity was measured by adding 15 μL of freshly prepared Nano-Glo Luciferase Assay Reagent (Promega N1130), shaking the plates for 10 minutes and reading the bioluminescence using an EnVision reader. • Results: The Inhibition % was calculated using the following formula: % Inhibition=100×(LumHC−LumSample)/(LumHC−LumLC). DMSO treated cells are employed as High Control (HC) and 1 μM of a known BRD9 degrader standard treated cells are employed as Low Control (LC).

Compound	DC50 (Table 6C)	DC50 (Table 6B)
COc1cc(-c2cn(C)c(=O)c3cc(C(=O)NC4CCN(c5ccc6c(c5)C(=O)N(C5CCC(=O)NC5=O)C6)C4)sc23)cc(OC)c1CN(C)C (centres unmarked) [Compound D114]	< 10 nM	–
COc1cc(-c2cn(C)c(=O)c3cc(C(=O)NCC4CC5(CCN(CCCN6CCN(c7ccc8c(c7)C(=O)N(C7CCC(=O)NC7=O)C8=O)CC6)CC5)C4)sc23)cc(OC)c1CN(C)C (centres unmarked) [Compound D33]	–	< 10 nM
COc1cc(-c2cn(C)c(=O)c3ccsc23)cc(OC)c1CN1CCC2(CC1)CN(c1ccc3c(c1)C(=O)N(C1CCC(=O)NC1=O)C3)C2 (centres unmarked) [Compound D186]	< 10 nM	–
COc1cc(-c2cn(C)c(=O)c3cc(C)sc23)cc(OC)c1CN1CCC2(CC1)CN(c1ccc3c(c1)C(=O)N(C1CCC(=O)NC1=O)C3)C2 (centres unmarked) [Compound D132]	< 10 nM	–
COc1cc2c(=O)n(C)cc(-c3cc(OC)c(CN4CCC5(CC4)CN(c4ccc6c(c4)C(=O)N(C4CCC(=O)NC4=O)C6)C5)c(OC)c3)c2s1 (centres unmarked) [Compound D120]	< 10 nM	–
COc1cc(-c2cn(C)c(=O)c3ccsc23)cc(OC)c1CN1CCC2CCN(c3ccc4c(c3)C(=O)N(C3CCC(=O)NC3=O)C4)CC2C1 (centres unmarked) [Compound D113]	< 10 nM	–
COc1cc(-c2cn(C)c(=O)c3ccsc23)cc(OC)c1CN1CCC(CN2CCC3(CC2)CC(Oc2ccc4c(c2)C(=O)N(C2CCC(=O)NC2=O)C4=O)C3)CC1 (centres unmarked) [Compound D189]	< 10 nM	–
COc1cc(-c2cn(C)c(=O)c3cc(C(=O)N(C)C)sc23)cc(OC)c1CN1CCC2(CC1)CN(c1ccc3c(c1)C(=O)N(C1CCC(=O)NC1=O)C3)C2 (centres unmarked) [Compound D133]	< 10 nM	–
COc1cc(-c2cn(C)c(=O)c3cc(C(=O)NC4CN(c5ccc6c(c5)C(=O)N(C5CCC(=O)NC5=O)C6=O)CC4(F)F)sc23)cc(OC)c1CN(C)C (centres unmarked) [Compound D190]	< 10 nM	–
COc1cc(-c2cn(C)c(=O)c3cc(C(=O)NC4CCN(CCCCCOc5cccc6c5C(=O)N(C5CCC(=O)NC5=O)C6=O)CC4F)sc23)cc(OC)c1CN(C)C (centres unmarked) [Compound D84]	–	< 10 nM
COc1cc(-c2cn(C)c(=O)c3cc(C(=O)NC4CCCN(CCCCCOc5ccc6c(c5)C(=O)N(C5CCC(=O)NC5=O)C6=O)CC4)sc23)cc(OC)c1CN(C)C (centres unmarked) [Compound D87]	–	< 10 nM
COc1cc(-c2cn(C)c(=O)c3cc(C(=O)NC4CCN(CCCCCOc5ccc6c(c5)C(=O)N(C5CCC(=O)NC5=O)C6=O)CC4)sc23)cc(OC)c1CN(C)C (centres unmarked) [Compound D89]	–	< 10 nM
COc1cc(-c2cn(C)c(=O)c3ccsc23)cc(OC)c1C1CCN(c2ccc3c(c2)C(=O)N(C2CCC(=O)NC2=O)C3)C1 (centres unmarked) [Compound D122]	< 10 nM	–
COc1cc(-c2cn(C)c(=O)c3cc(C(=O)NC4CCN(c5cccc(CN6CCC(=O)NC6=O)c5)CC4)sc23)cc(OC)c1CN(C)C [Compound D124]	< 10 nM	–
COc1cc(-c2cn(C)c(=O)c3cc(C(=O)N[C@@H]4CCN(C5CCN(c6ccc7c(c6)C(=O)N([C@@H]6CCC(=O)NC6=O)C7)CC5)CC4(F)F)sc23)cc(OC)c1CN(C)C [Compound D135]	< 10 nM	–
COc1cc(-c2cn(C)c(=O)c3ccsc23)cc(OC)c1CN1CC(Oc2ccc3c(c2)C(=O)N(C2CCC(=O)NC2=O)C3)C1 (centres unmarked) [Compound D168]	< 10 nM	–
COc1cc(-c2cn(C)c(=O)c3cc(C(=O)NCC4CC5(CCN(CCN6CCN(c7ccc8c(c7)C(=O)N(C7CCC(=O)NC7=O)C8=O)CC6)CC5)CO4)sc23)cc(OC)c1CN(C)C (centres unmarked) [Compound D50]	–	< 10 nM
COc1cc(-c2cn(C)c(=O)c3cc(C(=O)NCC4CC5(CCN(CCN6CCN(c7ccc8c(c7)C(=O)N(C7CCC(=O)NC7=O)C8=O)CC6)CC5)C4)sc23)cc(OC)c1CN(C)C (centres unmarked) [Compound D36]	–	< 10 nM
COc1cc(-c2cn(C)c(=O)c3ccsc23)cc(OC)c1CN1CCC2CCN(c3ccc4c(c3)CN(C3CCC(=O)NC3=O)C4=O)CC2C1 (centres unmarked) [Compound D121]	< 10 nM	–
COc1cc(-c2cn(C)c(=O)c3cc(C(=O)NCC4CCN(CCCCOc5cccc6c5C(=O)N(C5CCC(=O)NC5=O)C6=O)CC4)sc23)cc(OC)c1CN(C)C (centres unmarked) [Compound D81]	–	> 100 nM
COc1cc(-c2cn(C)c(=O)c3cc(C(=O)NC4CCN(C(=O)CN5CCC6(CC5)CN(c5ccc7c(c5)C(=O)N(C5CCC(=O)NC5=O)C7=O)C6)CC4(F)F)sc23)cc(OC)c1CN(C)C (centres unmarked) [Compound D46]	–	< 10 nM

Compound	DC50 (Table 6C)	DC50 (Table 6B)
COc1cc(-c2cn(C)c(=O)c3ccsc23)cc(OC)c1CN1CCN(c2ccc3c(c2)C(=O)N(C2CCC(=O)NC2=O)C3)CC12CCC2 (centres unmarked) [Compound D176]	< 10 nM	–
COc1cc(-c2cn(C)c(=O)c3cnsc23)cc(OC)c1CN1CC(Oc2ccc3c(c2)C(=O)N(C2CCC(=O)NC2=O)C3)C1 (centres unmarked) [Compound D213]	< 10 nM	–
CCc1cc(-c2cn(C)c(=O)c3cc(C(=O)NC4CCN(C5CCN(c6ccc7c(c6)C(=O)N(C6CCC(=O)NC6=O)C7)CC5)CC4(F)F)sc23)cc(OC)c1CN(C)C (centres unmarked) [Compound D157]	< 10 nM	–
COCc1cc2c(=O)n(C)cc(-c3cc(OC)c(CN4CCC5(CC4)CN(c4ccc6c(c4)C(=O)N(C4CCC(=O)NC4=O)C6)C5)c(OC)c3)c2s1 (centres unmarked) [Compound D119]	< 10 nM	–
COc1cc(-c2cn(C)c(=O)c3nc(C)sc23)cc(OC)c1CN1CCC2(CC1)CN(c1ccc3c(c1)C(=O)N(C1CCC(=O)NC1=O)C3)C2 (centres unmarked) [Compound D214]	< 10 nM	–
COc1cc(-c2cn(C)c(=O)c3cc(C(=O)NC4CC5(C4)CN(C(=O)CCN4CCN(c6ccc7c(c6)C(=O)N(C6CCC(=O)NC6=O)C7=O)CC4)C5)sc23)cc(OC)c1CN(C)C (centres unmarked) [Compound D74]	–	< 10 nM
CNc1cc2c(=O)n(C)cc(-c3cc(OC)c(CN4CCC5(CC4)CN(c4ccc6c(c4)C(=O)N(C4CCC(=O)NC4=O)C6)C5)c(OC)c3)c2s1 (centres unmarked) [Compound D97]	< 10 nM	–
COc1cc(-c2c(C)n(C)c(=O)c3ccsc23)cc(OC)c1CN1CCC2(CC1)CN(c1ccc3c(c1)C(=O)N(C1CCC(=O)NC1=O)C3)C2 (centres unmarked) [Compound D158]	< 10 nM	–
COc1cc(-c2cn(C)c(=O)c3cc(C(=O)NC4CCN(CCN5CCN(c6ccc7c(c6)C(=O)N(C6CCC(=O)NC6=O)C7=O)CC5)CC4(F)F)sc23)cc(OC)c1CN(C)C (centres unmarked) [Compound D79]	–	< 10 nM
COc1cc(-c2cn(C)c(=O)c3cc(N4CCC4)sc23)cc(OC)c1CN1CCC(CCN2CCN(c3ccc4c(c3)C(=O)N(C3CCC(=O)NC3=O)C4)CC2)CC1 (centres unmarked) [Compound D94]	< 10 nM	–
COc1cc(-c2cn(C)c(=O)c3cc(C(=O)NC4CC5CN(C(=O)CCN6CCN(c7ccc8c(c7)C(=O)N(C7CCC(=O)NC7=O)C8=O)CC6)CC5C4)sc23)cc(OC)c1CN(C)C (centres unmarked) [Compound D76]	–	> 10 nM
COc1cc(-c2cn(C)c(=O)c3cc(C(=O)NC4CCN(C)CC4(F)F)sc23)cc(OC)c1CN1CC(CN2CCC3(CC2)CN(c2ccc4c(c2)CN(C2CCC(=O)NC2=O)C4=O)C3)C1 (centres unmarked) [Compound D104]	< 10 nM	–
COc1cc(-c2cn(C)c(=O)c3cc(C(=O)NC4CCN(CCN5CCN(c6ccc7c(c6)CN(C6CCC(=O)NC6=O)C7=O)CC5)CC4(F)F)sc23)cc(Cl)c1CN(C)C (centres unmarked) [Compound D17]	–	< 10 nM
COc1cc(-c2cn(C)c(=O)c3cc(C(=O)NC4CCN(C5CCN(c6ccc7c(c6)CN(C6CCC(=O)NC6=O)C7=O)CC5(F)F)CC4)sc23)cc(OC)c1CN(C)C (centres unmarked) [Compound D127]	< 10 nM	–
Cn1cc(-c2cccc(C(F)(F)F)c2)c2sc(C(=O)NC3CCN(c4ccc5c(c4)C(=O)N(C4CCC(=O)NC4=O)C5)CC3)cc2c1=O (centres unmarked) [Compound D128]	< 10 nM	–
COc1cc(-c2cn(C)c(=O)c3cc(C(=O)NCC4CC5(C4)CN(C(=O)CCN4CCN(c6ccc7c(c6)C(=O)N(C6CCC(=O)NC6=O)C7=O)CC4)C5)sc23)cc(OC)c1CN(C)C (centres unmarked) [Compound D51]	–	> 10 nM
COc1cc(-c2cn(C)c(=O)c3ccsc23)cc(OC)c1C1CCN(c2ccc3c(c2)C(=O)N(C2CCC(=O)NC2=O)C3)CC1 (centres unmarked) [Compound D123]	< 10 nM	–
COc1cc(-c2cn(C)c(=O)c3cc(C(=O)NC4CCN(c5ccc6c(c5)C(=O)N(C5CCC(=O)N(C)C5=O)C6)CC4(F)F)sc23)cc(OC)c1CN(C)C (centres unmarked) [Compound D143]	> 1000 nM	–
COc1cc(-c2cn(C)c(=O)c3ccsc23)cc(OC)c1CN1CCC(CN2CCC3(CC2)CN(c2ccc4c(c2)C(=O)N(C2CCC(=O)NC2=O)C4=O)C3)CC1 (centres unmarked) [Compound D185]	< 10 nM	–
COc1cc(-c2cn(C)c(=O)c3ccsc23)cc(OC)c1CN1CCC(CN2CCC3(CC2)CC(Oc2ccc4c(c2)C(=O)N(C2CCC(=O)NC2=O)C4)C3)CC1 (centres unmarked) [Compound D174]	< 10 nM	–
